What follows are compounds tested against T1, human CRTH2 (Homo sapiens, UniProt Q9Y5Y4) (assay: Human CRTH2 Receptor Binding Assay (whole cell, [3H]ramatroban)). Conditions: CHO-K1 cells expressing human CRTH2 and G-alpha16; 20 nM [3H]ramatroban; 1 hour, room temperature.
T1 sequence (Q9Y5Y4 1-395): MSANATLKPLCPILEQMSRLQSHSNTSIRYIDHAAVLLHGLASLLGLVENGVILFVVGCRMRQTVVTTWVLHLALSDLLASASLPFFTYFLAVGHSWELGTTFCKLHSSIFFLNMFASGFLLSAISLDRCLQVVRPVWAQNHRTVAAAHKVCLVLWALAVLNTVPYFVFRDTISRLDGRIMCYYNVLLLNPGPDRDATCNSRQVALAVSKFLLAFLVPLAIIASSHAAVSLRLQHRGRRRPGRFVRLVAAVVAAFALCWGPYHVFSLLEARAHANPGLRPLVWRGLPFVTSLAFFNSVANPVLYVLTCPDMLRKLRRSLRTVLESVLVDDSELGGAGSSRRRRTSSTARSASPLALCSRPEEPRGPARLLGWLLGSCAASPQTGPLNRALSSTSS
Set-up: expressed in transfected cells; host or cells: CHO-K1
Description: A whole cell receptor binding assay using [^3H]ramatroban as the competing radioactive ligand was employed to evaluate the compound binding activity to human CRTH2. The radioactive ligand [^3H]ramatroban was synthesized according to Sugimoto et. al. (Eur. J. Pharmacol. 524, 30-37, 2005) to a specific activity of 42 Ci/mmol.
A cell line stably expressing human CRTH2 was established by transfecting CHO-K1 cells with two mammalian expression vectors that harbored human CRTH2 and G-alpha16 cDNAs, respectively, using FuGene® 6 transfection reagent (from Roche). Stable clones expressing CRTH2 were selected by staining each clone with BM16 (BD Pharmingen™ from BD Biosciences, a division of Becton, Dickinson and Company), which is a rat monoclonal antibody to human CRTH2. The cells were maintained as monolayer cultures in Ham's F-12 medium containing 10% fetal bovine serum, 100 units/mL penicillin, 100 μg/mL streptomycin, 2 mM glutamine, 0.5 mg/mL G418 (geneticin) for CRTH2, and 0.2 mg/mL hygromycin-B (for G-alpha 16). For whole cell receptor binding assay, the monolayer cells were rinsed once with PBS (phosphate buffered saline), dissociated using ethylenediaminetetraacetate (Versene™ EDTA from Lonza Inc.), and suspended in PBS containing 10 mM MgCl2 and 0.06% BSA (bovine serum albumin) at 1.5×10^6 cells/mL.
The binding reactions (0.2 mL) were performed in 96-well plates at room temperature in PBS containing 1.5×10^5 cells, 10 mM MgCl2, 0.06% BSA, 20 nM [^3H]ramatroban, and test compound at various concentrations. After 1 hour of binding reactions, the cells were harvested on GF™/B filter microplates (microtiter plates with embedded glass fiber from Perkin Elmer, Inc.) and washed 5 times with PBS using a Filtermate™ Harvester (a cell harvester that harvests and washes cells from microplates from PerkinElmer, Inc.). The radioactivities bound to the cells were determined using a microplate scintillation counter (TopCount® NXT, from PerkinElmer, Inc.) after adding 50 μL of Microscint™ 20 scintillation fluid (from PerkinElmer, Inc.) to each well of the filter plates. The radioactivity from non-specific binding was determined by replacing compound with 10 μM of 15(R)-15-methyl PGD2 (from Cayman Chemical Company) in the reaction mixtures. The radioactivity bound to the cells in the absence of compound (total binding) was determined by replacing compound with 0.25% of DMSO (dimethyl sulfoxide) in the reaction mixture. Specific binding data were obtained by subtracting the radioactivity of non-specific binding from each binding data.
The IC50 value is defined as the concentration of the tested compound that is required for 50% inhibition of total specific binding. In order to calculate the IC50 value, the percent inhibition data were determined for 7 concentrations for each compound. The percent inhibition for a compound at each concentration was calculated according to the following formula, [1-(specific binding in the presence of compound)/(total specific binding)]×100. The IC50 value was then obtained by fitting the percent inhibition data to a sigmoidal dose-response (4 parameter logistic) model in the XLfit® software Excel add-in program [from ID Business Solutions Ltd., model 205, where F(x)=(A+(B−A)/(1+((C/×)^D)))].

Compound	IC50 [nM]
Cc1c(CC(=O)O)cc2ccc(F)cc2c1Cc1cccc(Cl)c1 [Example 15-2, [4-(3-Chloro-benzyl)-6-fluoro-3-methyl-naphthalen-2-yl]-acetic acid]	83.8
Cc1c(CC(=O)O)cc2ccc(F)cc2c1Cc1ccc(F)cc1 [Example 15-3, [6-Fluoro-4-(4-fluoro-benzyl)-3-methyl-naphthalen-2-yl]-acetic acid]	32.8
Cc1c(CC(=O)O)cc2ccc(F)cc2c1Cc1ccc(OC(F)(F)F)cc1 [Example 15-4, [6-Fluoro-3-methyl-4-(4-trifluoromethoxy-benzyl)-naphthalen-2-yl]-acetic acid]	79.3
COC(=O)c1cccc(Cc2c(C)c(CC(=O)O)cc3ccc(F)cc23)c1 [Example 15-5, 3-(3-Carboxymethyl-7-fluoro-2-methyl-naphthalen-1-ylmethyl)-benzoic acid methyl ester]	27.6
CS(=O)(=O)c1ccc(C(O)c2cc(CC(=O)O)cc3ccc(F)cc23)c(Cl)c1 (stereo not drawn) [Example 16-1, {4-[(2-Chloro-4-methanesulfonyl-phenyl)-hydroxy-methyl]-6-fluoro-naphthalen-2-yl}-acetic acid]	16.1
CS(=O)(=O)c1ccc(C(O)c2cc(CC(=O)O)cc3ccc(Cl)cc23)cc1 (stereo not drawn) [Example 16-3, {6-Chloro-4-[hydroxy-(4-methanesulfonyl-phenyl)-methyl]-naphthalen-2-yl}-acetic acid]	15.9
Cc1cc(S(C)(=O)=O)ccc1C(O)c1cc(CC(=O)O)cc2ccc(F)cc12 (stereo not drawn) [Example 16-4, {6-Fluoro-4-[hydroxy-(4-methanesulfonyl-2-methyl-phenyl)-methyl]-naphthalen-2-yl}-acetic acid]	31.9
CS(=O)(=O)c1ccc(C(O)c2cc(CC(=O)O)cc3ccc(F)cc23)cc1 (stereo not drawn) [Example 16-5, {6-Fluoro-4-[hydroxy-(4-methanesulfonyl-phenyl)-methyl]-naphthalen-2-yl}-acetic acid]	8
CS(=O)(=O)c1ccc(C(O)c2cc(CC(=O)O)cc3ccccc23)cc1 (stereo not drawn) [Example 16-6, {4-[Hydroxy-(4-methanesulfonyl-phenyl)-methyl]-naphthalen-2-yl}-acetic acid]	35.2
CCS(=O)(=O)c1ccc(C(O)c2cc(CC(=O)O)cc3ccc(F)cc23)cc1 (stereo not drawn) [Example 16-7, {4-[(4-Ethanesulfonyl-phenyl)-hydroxy-methyl]-6-fluoro-naphthalen-2-yl}-acetic acid]	17.4
CCS(=O)(=O)c1ccc(C(O)c2cc(CC(=O)O)cc3ccc(F)cc23)c(C)c1 (stereo not drawn) [Example 16-8, {4-[(4-Ethanesulfonyl-2-methyl-phenyl)-hydroxy-methyl]-6-fluoro-naphthalen-2-yl}-acetic acid]	18.9
CS(=O)(=O)c1ccc(C(F)(F)c2cc(CC(=O)O)cc3ccc(F)cc23)c(Cl)c1 [Example 17-1, {4-[(2-Chloro-4-methanesulfonyl-phenyl)-difluoro-methyl]-6-fluoro-naphthalen-2-yl}-acetic acid]	5.7
CS(=O)(=O)c1ccc(C(F)(F)c2cc(CC(=O)O)cc3ccc(F)cc23)cc1 [Example 17-2, {4-[Difluoro-(4-methanesulfonyl-phenyl)-methyl]-6-fluoro-naphthalen-2-yl}-acetic acid]	3.1
CCS(=O)(=O)c1ccc(C(F)(F)c2cc(CC(=O)O)cc3ccc(F)cc23)cc1 [Example 17-3, {4-[(4-Ethanesulfonyl-phenyl)-difluoro-methyl]-6-fluoro-naphthalen-2-yl}-acetic acid]	3.9
COC(c1ccc(S(C)(=O)=O)cc1)c1cc(CC(=O)O)cc2ccc(F)cc12 (stereo not drawn) [Example 18-1, {6-Fluoro-4-[(4-methanesulfonyl-phenyl)-methoxy-methyl]-naphthalen-2-yl}-acetic acid]	40.4
Cc1c(CC(=O)O)cc2ccc(F)cc2c1C(O)c1ccc(S(C)(=O)=O)cc1 (stereo not drawn) [Example 19-1, {6-Fluoro-4-[hydroxy-(4-methanesulfonyl-phenyl)-methyl]-3-methyl-naphthalen-2-yl}-acetic acid]	11.8
O=C(O)Cc1cc(C(O)c2ccc(S(=O)(=O)N3CCOCC3)cc2)c2cc(F)ccc2c1 (stereo not drawn) [Example 19-2, (6-Fluoro-4-{hydroxy-[4-(morpholine-4-sulfonyl)-phenyl]-methyl}-naphthalen-2-yl)-acetic acid]	9.5
CNS(=O)(=O)c1ccc(C(O)c2cc(CC(=O)O)cc3ccc(F)cc23)cc1 (stereo not drawn) [Example 20-1, {6-Fluoro-4-[hydroxy-(4-methylsulfamoyl-phenyl)-methyl]-naphthalen-2-yl}-acetic acid]	22.1

Reference: patent US8124629B2, “Naphthylacetic acids” (Hoffmann-La Roche Inc., priority 2008, dated 2012)
